How the values were obtained:
in vivo = experiment: in vivo
Procedure: The ability to deliver dendrimer-drug conjugates via the pulmonary route was evaluated.
Male Sprague Dawley (SD) rats (8-9 weeks, 270-320 g) were obtained from Monash Animal Services (VIC, Australia). Female F344 rats (8-10 weeks) were supplied by Animal Resources Centre (Perth, Australia).
Blood samples and urine were then collected for up to 5 days. […] At the completion of the study, bronchoalveolar lavage fluid (BALF), lungs, liver, heart, spleen, kidneys and pancreas were collected from rats for biodistribution analysis. BALF was collected via the intratracheal perfusion of 3×5 ml saline Alveolar macrophages were isolated from BALF via centrifugation at 600×g for 10 mins. […] Plasma, urine, feces, and organs were analysed for radiolabel via liquid scintillation counting. Total doxorubicin in plasma, BALF and lung tissue in pulmonary dosed rats was analysed via a fluorescence HPLC (Kaminskas L M, et al, Nanomedicine. 2012 January; 8(1):103-11).
Data are represented as mean±s.d. (n=3-7).

[1] = Release of Remdesivir in PBS buffer (Release Method 1); assay type: physicochemical; settings: PBS buffer with 10% v/v DMSO, pH 7.4, 37° C.
Procedure: Release Method 1: An accurately weighed amount of the Remdesivir-dendrimer (10 mg) construct was dissolved in pH 7.4 PBS buffer:DMSO (9:1 v/v) and the volume made up to 20.0 mL in a volumetric flask to give a 0.5 mg/mL stock solution. The stock solution was aliquoted into several 2 mL screw-cap vials, the caps fitted and the vials heated at 37° C. The aliquoted solutions were analyzed at different time points by HPLC (HPLC Method 3). The concentration of Remdesivir RHa-1 was calculated by comparing the area under the peak associated with Remdesivir RHa-1 to a standard curve in MeCN:DMSO (9:1, v/v). The percentage of Remdesivir RHa-1 released is the percentage of available Remdesivir RHa-1 based on the loading of the construct as determined by ^1H NMR analysis (API Loading Method 1).
The extent to which the Remdesivir RHa-1 was released over time in PBS buffer (with 10% v/v DMSO) (pH 7.4) at 37° C. was determined for 5 constructs, RHa-17, RHa-15, RHa-11, RHa-5 and RHa-3 (Release Method 1) over 120 hours.
Trace amounts of other components were also observed (presumed to be degradation products of Remdesivir RHa-1). The area under the resolvable (separated) peaks associated with these degradants was also added to the peak area associated with released Remdesivir RHa-1.
BHALys [Lys]2[Lys]4[Lys]8[Lys]16[Lys]32[(α-NH-6N-TDA-Remdesivir)32(ε-NH-COPEG2000)32] RHa-5 contained 1.77% free Remdesivir RHa-1 at t=0 min. The value of released Remdesivir RHa-1 shown in FIG. 3 has been adjusted to take this into account.

Solubility studies = assay type: physicochemical
Procedure: The solubility of BHALys[Lys]2[Lys]4[Lys]8[Lys]16[Lys]32[(α-NH-3′ O-Glu-Remdesivir)32(ε-NH-COPEG2000)32] RHa-3 in water was determined to be ≥200 mg/mL (or ≥43.6 mg/mL Remdesivir RHa-1) by adding water (250 μL) to 50.0 mg of BHALys [Lys]2[Lys]4[Lys]8[Lys]16[Lys]32[(α-NH-3′ O-Glu-Remdesivir)32(ε-NH-COPEG2000)32] and swirling briefly. After 2 min, the resulting solution was visually inspected for particulates and found to be a clear solution (see FIG. 2). Solutions shown are 40 mg/ml Remdesivir equivalents (equivalent to 200 mg/ml of conjugate RHa-3).
The solubility of BHALys[Lys]2[Lys]4[Lys]8[Lys]16[Lys]32[(α-NH-6N-TDA-Remdesivir)32(ε-NH-COPEG2000)32] RHa-5, in EtOH:Water (1:9 v/v) was determined to be ≥543 mg/mL (or ≥107 mg/mL Remdesivir RHa-1) by adding water EtOH:Water (1:9 v/v, 400 μL) to 380 mg of RHa-5. The mixture was swirled briefly and left to stand at rt. After 1.5 h the resulting solution (volume recorded=700 μL) was visually inspected for particulates and found to be a clear solution.
The solubility of BHALys[Lys]2[Lys]4[Lys]8[Lys]16[Lys]32[(α-NH-6N-TDA-Remdesivir)32(ε-NH-COPEG1000)32] RHa-17 in EtOH:Water (1:9 v/v) was determined to be ≥354* mg/mL (or ≥85 mg/mL Remdesivir RHa-1) by adding EtOH:Water (1:9 v/v, 958 μL) portionwise to 525 mg of RHa-17, over a period of 1.5 h with intermittent swirling. The resulting solution was visually inspected for particulates and found to be a clear solution.
(*Total volume not recorded. Assumes 1 mg construct contributes to 1 μL of final solution (i.e., total volume of final solution=1483 μL)).

[2] = set-up: species or system rats; settings: rat, in vivo
Procedure: The dendrimer BHALys[Lys]2[Lys]4[Lys]8[Lys]16(PEG2000)32 was constituted to 10 mg/ml in PBS and stored at −20° C. until required. The construction of the dendrimer was as described previously (Kaminskas L M, et al Mol Pharm. 2008 May-June; 5(3):449-63).
Rats were intravenously administered 1 ml of dendrimer in sterile saline over 2 mins. […] For the pharmacokinetic evaluation of dendrimer administered to the lungs as an aerosolized dose, rats were cannulated only via the right carotid artery. Rats were administered 1 mg of dendrimer in 100 μl saline via intratracheal insertion of the Penn Century micro spray aerosol device to the lungs of rats under isoflurane anaesthesia. […] Plasma, urine, feces and lungs were analysed for radiolabel via liquid scintillation counting
(n=4-5 rats) and data is normalized to 5 mg/kg dendrimer. […] Data in Figure B represents mean±s.d. (n=4 rats) 7 days after the pulmonary dose.

[3] = Viscosity measurements (Viscosity Method 1); assay type: physicochemical; settings: 50 mg/mL Remdesivir equivalents in EtOH: Water (1:9 v/v)
Procedure: Viscosities were measured on Anton Paar ViscoQC300 Viscometer using CC-12 cup.
Viscosity Method 1: A reference standard solution (Standard Type: RT500, CAS No. 63148-62-9, Paragon Scientific Ltd) was first recorded and found to be within the range of reported value (at 20° C.: found 556.6 cP, theoretical 551.0 cP; at 25° C.: found 503.3 cP, theoretical 498.6 cP). Accurately weighed quantities of respective conjugates were dissolved in EtOH:Water […] to make a 50 mg/mL Remdesivir equivalent solution (total volume 2.30-2.40 mL) and the viscosity of the solution was recorded at 20° C. and 25° C.
Viscosities of 2 formulations containing either RHa-5 or RHa-17 in EtOH: Water (1:9 v/v) were measured using Viscosity Method 1

[4] = cited from earlier work
[5] = male, Sprague-Dawley, rat, in vivo
[6] = male, Sprague-Dawley, rat, in vivo, inhaled or intranasal, 0.6 mg

COc1cccc2c1C(=O)c1c(O)c3c(c(O)c1C2=O)C[C@@](O)(C(=O)CO)C[C@@H]3O[C@H]1C[C@H](N)[C@H](O)[C@H](C)O1 [Doxorubicin, doxorubicin]
Fabs 0-∞, doxorubicin (in vivo; [5]): 83 ± 9%
Kel, doxorubicin (in vivo; [5]): 0.132 ± 0.010 ^−h
Tmax (in vivo; [6]): 6 ± 3 min
half-life (in vivo; [6]): 5 ± 0.4 h
AUC (in vivo; male, Sprague-Dawley, rat, in vivo, iv, 0.75 mg/kg): 210 ± 40 ng·h/mL
AUC (in vivo; male, Sprague-Dawley, rat, plasma, inhaled or intranasal, 0.6 mg): 170 ± 20 ng·h/mL
Kel, doxorubicin (in vivo; rats, intravenous, doxorubicin normalized to 0.75 mg/kg): 0.518 ± 0.312 ^−h

BHALys[Lys]2[Lys]4[Lys]8[Lys]16[Lys]32[(α-NH-3′O-DGA-Remdesivir)32(ε-NH-COPEG2000)32] [RHa-11]
Approx. Time taken for 50% Remdesivir release [1]: ~3 h

BHALys[Lys]2[Lys]4[Lys]8[Lys]16[Lys]32[(α-NH-3′O-Glu-Remdesivir)32(ε-NH-COPEG2000)32] [RHa-3]
Solubility in water (Solubility studies; water, conjugate mass, visual inspection after 2 min): ≥ 200 mg/mL
Solubility in water, as Remdesivir RHa-1 (Solubility studies; water, expressed as Remdesivir RHa-1): ≥ 43.6 mg/mL
Approx. Time taken for 50% Remdesivir release [1]: >120 h

BHALys[Lys]2[Lys]4[Lys]8[Lys]16(PEG2000)32
Bioavailability after lung delivery [2]: 2.4±3.3%

BHALys[Lys]2[Lys]4[Lys]8[Lys]16[Lys]32[(α-NH-6N-TDA-Remdesivir)32(ε-NH-COPEG1000)32] [RHa-17]
Solubility in EtOH:Water (1:9 v/v) (Solubility studies; EtOH:Water (1:9 v/v), conjugate mass, rt): ≥ 354 mg/mL
Solubility in EtOH:Water (1:9 v/v), as Remdesivir RHa-1 (Solubility studies; EtOH:Water (1:9 v/v), expressed as Remdesivir RHa-1): ≥ 85 mg/mL
Viscosity at 20° C. [3]: 38.99 cP
Viscosity at 25° C. [3]: 29.32 cP
Approx. Time taken for 50% Remdesivir release [1]: ~48 h

N#C[C@@]1(c2ccc3c(N)ncnn23)O[C@H](CO)[C@@H](O)[C@H]1O [GS-441524]
AUC0-24 ([4]; IV infusion of 200 mg Remdesivir, healthy human subjects): 7.7 µM·h
Cmax ([4]; after 200 mg dose of Remdesivir): 152 ng/mL
Peak plasma concentration ([4]; after 30 minutes infusion of Remdesivir): about 150 ng/ml

Reference: patent US20230263900A1, “DENDRIMER-DRUG CONJUGATE” (priority 2020, published 2023)
